According to patent US8993483B2, “Combination of active substances with insecticidal properties” (Bayer Intellectual Property GmbH, priority 2003, dated 2015):

Legend:
Format in all cases: in vivo
[1] = test system: caterpillars of the armyworm (Spodoptera frugiperda); experiment: Spodoptera frugiperda test (cabbage leaf dip, kill rate); settings: single active compound
Description: (§1) The expected action for a given combination of two active compounds can be calculated as follows, according to S. R. Colby, Weeds 15 (1967), 20-22:
(§2) • X is the kill rate, expressed as a percentage of the untreated control, when employing active compound A at an application rate of m g/ha or in a concentration of m ppm, • Y is the kill rate, expressed as a percentage of the untreated control, when employing active compound B at an application rate of n g/ha or in a concentration of n ppm and • E is the kill rate, expressed as a percentage of the untreated control, when employing active compounds A and B at application rates of m and n g/ha or in a concentration of m and n ppm, then
(§3) If the actual insecticidal kill rate exceeds the calculated value, the action of the combination is superadditive, i.e. a synergistic effect is present. In this case, the actually observed kill rate must exceed the value calculated using the above formula for the expected kill rate (E).
Spodoptera frugiperda Test
(§4) To produce a suitable preparation of active compound, 1 part by weight of active compound is mixed with the stated amounts of solvent and emulsifier, and the concentrate is diluted with emulsifier-containing water to the desired concentration.
Cabbage leaves (Brassica oleracea) are treated by being dipped into the preparation of active compound of the desired concentration and are populated with caterpillars of the armyworm (Spodoptera frugiperda) while the leaves are still moist.
(§5) After the desired period of time, the kill in % is determined. 100% means that all caterpillars have been killed; 0% means that none of the caterpillars have been killed. The kill rates determined are calculated using Colby's formula (see page 43).

[2] = test system: green peach aphid (Myzus persicae); experiment: Myzus persicae test (infested cabbage leaf dip, kill rate); settings: single active compound, 0.8 ppm
Description: as §1, §2, §3
(§6) To produce a suitable preparation of active compound, 1 part by weight of active compound is mixed with the stated amounts of solvent and emulsifier, and the concentrate is diluted with emulsifier-containing water to the desired concentration. […]
(§7) After the desired period of time, the kill in % is determined. […] The kill rates determined are calculated using Colby's formula (see page 43).

[3] = test system: larvae of the mustard beetle (Phaedon cochleariae); experiment: Phaedon cochleariae larvae test (cabbage leaf dip, kill rate); settings: single active compound
Description: as §1, §2, §3
Phaedon cochleariae Larvae Test
as §6, §7

[4] = test system: caterpillars of the diamond back moth (Plutella xylostella, normally sensitive strain); experiment: Plutella xylostella test (normally sensitive strain; cabbage leaf dip, kill rate); settings: single active compound
Description: as §1, §2, §3
Plutella xylostella Test (Normally Sensitive Strain)
as §4
Cabbage leaves (Brassica oleracea) are treated by being dipped into the preparation of active compound of the desired concentration and are populated with larvae of caterpillars of the diamond back moth (Plutella xylostella, normally sensitive strain) while the leaves are still moist.
After the desired period of time, the kill in % is determined. 100% means that all caterpillars have been killed; 0% means that none of the caterpillars have been killed. The kill rates determined are calculated using Colby's formula (see sheet 1).

[5] = test system: caterpillars of the cotton boll worm (Heliothis armigera); experiment: Heliothis armigera test (cabbage leaf dip, kill rate); settings: single active compound
Description: as §1, §2, §3, §4
Cabbage leaves (Brassica oleracea) are treated by being dipped into the preparation of active compound of the desired concentration and are populated with caterpillars of the cotton boll worm (Heliothis armigera) while the leaves are still moist.
as §5

Row | Compound | Kill rate in % after 6 d, found ([1]; 0.0064 ppm) | Kill rate in % after 6 d, found [2] | Kill rate in % after 6 d, found ([3]; 0.0064 ppm) | Kill rate in % after 6 d, found ([4]; 0.0064 ppm) | Kill rate in % after 6 d, found ([5]; 0.0064 ppm) | Kill rate in % after 6 d, found ([1]; 4 ppm) | Kill rate in % after 6 d, found ([3]; 4 ppm) | Kill rate in % after 6 d, found ([4]; 4 ppm) | Kill rate in % after 6 d, found ([5]; 4 ppm)
1 | Cc1cc(Cl)cc(C(=O)NC(C)C)c1NC(=O)c1cc(C(F)(F)F)nn1-c1ncccc1Cl [II-1-9] | 0% | 0% | 0% | 20% | 0% | – | – | – | –
2 | O=[N+]([O-])/N=C1\NCCN1Cc1ccc(Cl)nc1 [Ia, imidacloprid] | – | – | – | – | – | 0% | 20% | 0% | 0%
3 | CN/C(=N\[N+](=O)[O-])NCc1cnc(Cl)s1 [Im, clothianidin] | – | 30% | – | – | – | – | – | 0% | 40%
